Changes are numbered by the printed parent chain.
Columns and labels:
[1] = biological target: T1, ferrochelatase variant P255R (Mus musculus, UniProt P22315, P308R); assay: Transient kinetic analysis of NMPP inhibition (stopped-flow, zinc-protoporphyrin formation); assay type: biochemical, murine
T1 construct: In wild-type, murine, mature ferrochelatase, five tryptophan residues; penta-histidine tag (N); made in house; host or cells: E. coli BL21(DE3)
T1 sequence (P22315 54-422 P308R): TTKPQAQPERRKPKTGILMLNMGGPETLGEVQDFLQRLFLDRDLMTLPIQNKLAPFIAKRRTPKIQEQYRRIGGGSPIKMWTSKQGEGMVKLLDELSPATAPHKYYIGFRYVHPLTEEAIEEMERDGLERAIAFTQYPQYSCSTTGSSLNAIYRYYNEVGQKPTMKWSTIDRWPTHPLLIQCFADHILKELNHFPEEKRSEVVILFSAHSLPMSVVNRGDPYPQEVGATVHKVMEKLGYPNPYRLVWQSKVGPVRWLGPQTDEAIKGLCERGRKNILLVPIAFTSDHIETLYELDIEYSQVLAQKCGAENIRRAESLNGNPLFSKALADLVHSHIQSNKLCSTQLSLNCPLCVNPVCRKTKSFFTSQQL
Procedure: (§1) Enzyme (0.5 μM) was reacted with protoporphyrin (5 μM) and zinc-acetate (15 μM) in the presence of various concentrations of NMPP. The pseudo first-order rate constant k was obtained from analysis of the time course (see Materials and Methods and FIG. 4) and plotted against NMPP concentration. The enzymes used in each set were: A. wild-type ferrochelatase; B. variant P255R; C. variant P255G.
(§2) In order to obtain the pseudo first-order rate constants for NMPP binding, the kinetic traces for zinc-protoporphyrin formation in the presence of various concentrations of inhibitor were fitted to equation 3. […] The data were fit to equation 1 for a two step process:
(§3) [formula] where k is the pseudo first-order rate constant for the approach to the steady-state phase, I0 is the inhibitor concentration, S0 is the initial substrate concentration,
(§4) [formula] is the apparent inhibition constant, Ki^app, and k2 and k−2 are the second step forward and reverse rate constants, respectively. […] A two kinetic step process for binding of NMPP to either wild-type ferrochelatase or P255R (i.e., a fast, initial step for NMPP binding to the enzyme, followed by a slow step, possibly related to a conformational rearrangement of the protein-inhibitor complex) is consistent with the porphyrin-triggered conformational change of the active-site pocket deduced from the analysis of the crystal structure of B. subtilis ferrochelatase with bound N-methyl mesoporphyrin in comparison with that of the unliganded protein. […] Therefore the diminished inhibition of variant P255R by NMPP (Ki^app=1 μM vs. Ki^app=3 nM for wild-type ferrochelatase) cannot be accounted for by differences in these rates.
(§5) Transient Kinetic Analysis. The kinetic steps involved in NMPP binding to ferrochelatase were assessed using stopped-flow absorption spectroscopic analysis by monitoring the enzymatic reaction in the presence of various concentrations of the inhibitor NMPP. The reactions were performed using a rapid scanning stopped-flow spectrophotometer (model RSM-1000; OLIS Inc.), equipped with a stopped-flow mixer and an observation chamber with an optical path-length of 4 mm. The dead time of the instrument is ˜2 ms. Scan spectra spanning the wavelength range of 347 to 574 nm were collected at a rate of 1000 scan/sec. The syringes containing the reaction components and the stopped-flow cell were maintained at 30° C. using an external water-bath. The concentrations of reagents loaded into each syringe were two-fold greater than the final concentrations in the observation chamber. Enzymatic activity was monitored by following the increase in absorbance at 420 nm for zinc-protoporphyrin production using Zn^2+ and protoporphyrin as substrates.
(§6) The enzyme and substrate stock solutions were diluted in 100 mM Tris-acetate, pH 8.0, containing 0.5% Tween-80. The stock solutions for substrates and inhibitor were prepared as follows: A 3 mM zinc-acetate solution was made by dissolving zinc-acetate in distilled and deionized H2O. A 200 μM protoporphyrin solution was prepared by dissolving protoporphyrin 1× in 50 mM NH4OH containing 0.5% Tween-80. A 2 mM NMPP solution was prepared by dissolving NMPP in 100 mM NH4OH containing 0.5% Tween-80. Typically, a 2 mL solution that was 1 μM in ferrochelatase and 10 μM in protoporphyrin was pre-incubated on ice for 30 min. The porphyrin-enzyme solution was titrated with NMPP. The mixture was subsequently transferred to one of the stopped-flow syringes. The other stopped-flow syringe was loaded with a reaction buffer solution of ˜2 mL that was 30 μM in zinc-acetate. The enzymatic reaction was initiated by mixing the contents from both syringes and reaction progression was monitored by following the increase in absorbance at 420 nm. The data were analyzed by fitting the observed absorbance values to equation 4: […]

wild-type ferrochelatase = biological target: T2, wild-type ferrochelatase (Mus musculus, UniProt P22315); assay: as above; assay type: biochemical, murine
T2 construct: In wild-type, murine, mature ferrochelatase, five tryptophan residues; penta-histidine tag (N); made in house; host or cells: E. coli BL21(DE3)
T2 sequence (P22315 54-422): T1 sequence (P22315 54-422 P308R) with R255P
Procedure: as §1, §2, §3, §4, §5, §6

[2] = two-step fit (equation 1), read-out: apparent inhibition constant Ki^app

N-methyl protoporphyrin [NMPP]
second step forward rate constant k2 [1]: 8.3 s⁻¹ | second step reverse rate constant k−2 [1]: 19.3 s⁻¹ | Ki [1, 2]: 1000 nM | second step forward rate constant k2 (wild-type ferrochelatase): 6.4 s⁻¹ | second step reverse rate constant k−2 (wild-type ferrochelatase): 24.5 s⁻¹ | Ki (wild-type ferrochelatase; [2]): 3 nM

Reference: patent US8586530B2, “Modulation of inhibition of ferrochelatase by N-methyl protoporphyrin” (University of South Florida, priority 2006, dated 2013)
